Three compounds from US6423317B1, “Method of killing protozoa” (S.S. Steiner, Inc., priority 2001, dated 2002) can be followed below.

The structures appear in SMILES notation.

Assay [1] concerns Chaos sp. The experiment in a line: Protozoicidal effect, time for 100% kill. Type of assay: cell-based. To be noted: for Time of death (100% kill): observation time 24 hours. How it is done:
(§1) The protozoicidal effect of various hop compounds was determined by preparing different concentrations of hop solution in 10 ml. of medium. The solution was poured into 6×4 multiwell dishes—3424 Mark 2 (Coster, Cambridge, Mass.). An average of 10 microorganisms was added to each well and observed under the stereomicroscope. Results were expressed as the time in minutes for a 100% kill, which was presumed when all of the
(§2) protozoa had stopped moving. The observation time was 24 hours.
(§3) In order to determine whether the protozoa had been killed rather than only temporarily inactivated, the organisms in hop solution were centrifuged, the supernatant removed, and the protozoa placed into fresh medium in which hop was not present. When there was no revival of the organisms, it was concluded that they were dead rather than only temporarily inactivated.
(§4) Tests were conducted to determine the effectiveness of the alpha and beta resins against amoebae.

In assay [2] the test system is P. caudatum. The experiment in a line: Protozoicidal effect, time for 100% kill. To be noted: for Time of death (100% kill): observation time 24 hours. It counts as cell-based, Paramecium caudatum. How it is done:
(§5) […] protozoa had stopped moving. The observation time was 24 hours. In order to determine whether the protozoa had been killed rather than only temporarily inactivated, the organisms in hop solution were centrifuged, the supernatant removed, and the protozoa placed into fresh medium in which hop was not present. When there was no revival of the organisms, it was concluded that they were dead rather than only temporarily inactivated.

Assay [3] relates to P. caudatum. Description: Co-action of hop resins with carbon dioxide, time for 100% kill. Type of assay: cell-based, Paramecium caudatum. To be noted: carbon dioxide bubbled into the medium for 30 seconds before inoculation. How it is done: (§6) Different concentrations of the alpha and beta resins of hop were prepared in 10 ml. of medium, as identified in Table 1, and poured into plastic tissue culture flasks of 25 cm. growth area with screw caps, obtained from Falcon, Oxnard, Calif. Carbon dioxide was then bubbled through the medium in the bottles at a rapid rate for a period of 30 seconds. An average of ten organisms were added to each flask and examined directly under the stereomicroscope. The times that were taken for a 100% kill of the organisms, that is, when all of the organisms ceased any motion, were recorded in minutes and are tabulated in Tables 7 and 8.

The test system of another assay is T. pyriformis. The experiment in a line: Protozoicidal effect, time for 100% kill. It counts as cell-based, Tetrahymena pyriformis. To be noted: observation time 24 hours. How it is done:
as §5

Assay [4] concerns Chaos sp. Description: Co-action of hop resins with carbon dioxide. It counts as cell-based. How it is done:
as §6
The same tests but at greater resin concentrations were carried out on an amoeba strain, Chaos sp., and the results recorded in Table 8.

The test system of the next assay is Euglena sp. The experiment in a line: Protozoicidal effect, time for 100% kill. The note with it: observation time 24 hours. It counts as cell-based. Here is the method:
as §5

The test system of the next assay is P. papillata. Description: Protozoicidal effect, time for 100% kill. Type of assay: cell-based, Polytomella papillata. The note with it: observation time 24 hours. How it is done: as §5
The next assay relates to Amoeba proteus. Description: Protozoicidal effect, time for 100% kill. It counts as cell-based. The note with it: 500 μg/ml, observation time 24 hours. How it is done: as §1, §2, §3, §4
[5] abbreviates: 0.2 μg/ml, listed as beta resin.
Setting [6] is: 0.5 μg/ml, listed as beta resin.

`COc1cc(O)c(CC=C(C)C)c(O)c1C(=O)/C=C/c1ccc(O)cc1` [Xanthohumol, xanthohumol]: in the assay on Chaos sp. [1], the “Concentration effective in killing” value was no less than 5 µg/mL. In addition, the “Time of death (100% kill)” value with Chaos sp. [1] (5.0 μg/ml) was 15 min; in the assay on Chaos sp. [1] (10 μg/ml), 11 min; in the assay with P. caudatum [2] (0.05 μg/ml), 10 min; in the assay with P. caudatum [2] (0.05 μg/ml, listed as xanthohumol), “ten”; with P. caudatum [2] (0.1 μg/ml), 5 min; in the assay on P. caudatum [2] (1.0 μg/ml), 2.5 min.
`O=C=O` [Carbon dioxide, carbon dioxide]: in the assay on P. caudatum [3] (no hop), the “Time of death with carbon dioxide, without addition of hop” value was “*Carbon dioxide had been bubbled into the medium for 30 seconds previous to inoculation and death without addition of hop occurred between 40-50 minutes”.
On to `CC(C)=CCC1=C(O)C(C(=O)CC(C)C)=C(O)C(CC=C(C)C)(CC=C(C)C)C1=O` [Beta Resin, lupulone], for which the “Time of death (100% kill)” value with T. pyriformis (0.05 μg/ml) was “not sensitive”; in the assay with T. pyriformis (0.2 μg/ml) it was 15 min; in the assay with T. pyriformis (setting [5]) it was no more than 15 min; with T. pyriformis (0.5 μg/ml), 3 min; in the assay on T. pyriformis (setting [6]), “five”; with T. pyriformis (1.0 μg/ml), 1.5 min. Also, the “Time of death (100% kill)” value is 1.0 min in the assay with T. pyriformis (2.0 μg/ml); “two” with T. pyriformis (2.0 μg/ml, listed as beta resin); “not sensitive” with Euglena sp. (0.05 μg/ml); 2.5 min in the assay with Euglena sp. (0.5 μg/ml); 1.5 min in the assay on Euglena sp. (1.0 μg/ml); 1.2 min in the assay on Euglena sp. (2.0 μg/ml). For the same compound, the “Time of death (100% kill)” value with P. papillata (0.05 μg/ml) is “not sensitive”; in the assay on P. papillata (0.2 μg/ml), 40 min; in the assay on P. papillata (setting [5]), no more than 40 min; in the assay with P. papillata (0.5 μg/ml), 5 min; with P. papillata (1.0 μg/ml) it was 3.5 min; in the assay on P. papillata (2.0 μg/ml), 2.0 min. The “Time of death (100% kill)” value in the assay with Chaos sp. [1] (10 μg/ml) is “neither the alpha nor beta resins were effective alone”; in the assay on Chaos sp. [1] (50 μg/ml), 60 min; in the assay on Chaos sp. [1] (50 μg/ml, listed as beta resin), “effective per se”; with Chaos sp. [1] (100 μg/ml) it was 30 min; with Chaos sp. [1] (100 μg/ml, listed as beta resin) it was “all were effective”; in the assay on Chaos sp. [1] (200 μg/ml) it was 30 min. Moreover, the “Time of death (100% kill)” value in the assay on Chaos sp. [1] (500 μg/ml) is 25 min; with Amoeba proteus, 180 min; in the assay with P. caudatum [2] (0.05 μg/ml) it was “not sensitive”; in the assay with P. caudatum [2] (0.1 μg/ml), 60 min; with P. caudatum [2] (0.2 μg/ml), 5 min; in the assay with P. caudatum [2] (setting [5]) it was no more than 5 min. Moreover, the “Time of death (100% kill)” value with P. caudatum [2] (0.5 μg/ml) is 3.5 min; in the assay on P. caudatum [2] (setting [6]), “five”; in the assay with P. caudatum [2] (1.0 μg/ml), 3.0 min; in the assay on P. caudatum [2] (2.0 μg/ml), 2.0 min. The “Effectiveness in killing with prior carbon dioxide treatment” value is listed as “both were effective” in the assay on Chaos sp. [4] (resin 10 ug/ml, prior carbon dioxide treatment); “both were effective with carbon dioxide pretreatment” in the assay with Chaos sp. [4] (resin 50 ug/ml, carbon dioxide pretreatment); “all were most effective with pretreatment” with Chaos sp. [4] (resin 100 ug/ml, carbon dioxide pretreatment). In addition, the results for the “Time of death (100% kill), resin + CO2” value in the assay with P. caudatum [3] (resin 0.05 μg/ml) and with P. caudatum [3] (resin 0.1 μg/ml) were 14 min and 5 min, respectively. For the same compound, the “Time for death to occur” value in the assay on P. caudatum [2] (0.1 ug/ml) is recorded as “one”.
